Counter-ions that a name gives are not always drawn.
target: human LOXL2 (Homo sapiens (Human), UniProt Q9Y4K0); assay: Human LOXL2 Amine Oxidase Activity Assay (Amplex Red fluorescence); type: biochemical; conditions: concentrated conditioned media from CHO cells stably expressing human LOXL2; 2 h at 37° C. preincubation; DAP substrate; read-out: IC50
Procedure: LOXL2 amine oxidase activity is evaluated by measuring Amplex Red fluorescence using 10-20× concentrated conditioned media from CHO cells stably expressing human LOXL2. To assay for amine oxidase activity, 10 μL of the concentrated conditioned media is incubated with 2 μL of test compound in DMSO and 73 μL Assay Buffer (50 mM Borate Buffer, pH8) for 2 h at 37° C. After the 2 h incubation, 5 μl of 10 mM 1,5-Diaminopentane (DAP) diluted in Assay Buffer and 10 μl of Amplex Red Mix (8.5 μl Assay Buffer+0.5 μl of 10 mM Amplex Red+1 μl of 500 U/ml Horseradish Peroxidase) are added and the plate mixed and immediately placed on the FlexStaion for fluorescence measurements. Fluorescence is read in kinetic mode every 2 min for 1 hour at excitation=544 and emission=590. The amine oxidase activity is calculated from the slope of the linear portion of the curve.

Sequence of human LOXL2 (Q9Y4K0 26-774): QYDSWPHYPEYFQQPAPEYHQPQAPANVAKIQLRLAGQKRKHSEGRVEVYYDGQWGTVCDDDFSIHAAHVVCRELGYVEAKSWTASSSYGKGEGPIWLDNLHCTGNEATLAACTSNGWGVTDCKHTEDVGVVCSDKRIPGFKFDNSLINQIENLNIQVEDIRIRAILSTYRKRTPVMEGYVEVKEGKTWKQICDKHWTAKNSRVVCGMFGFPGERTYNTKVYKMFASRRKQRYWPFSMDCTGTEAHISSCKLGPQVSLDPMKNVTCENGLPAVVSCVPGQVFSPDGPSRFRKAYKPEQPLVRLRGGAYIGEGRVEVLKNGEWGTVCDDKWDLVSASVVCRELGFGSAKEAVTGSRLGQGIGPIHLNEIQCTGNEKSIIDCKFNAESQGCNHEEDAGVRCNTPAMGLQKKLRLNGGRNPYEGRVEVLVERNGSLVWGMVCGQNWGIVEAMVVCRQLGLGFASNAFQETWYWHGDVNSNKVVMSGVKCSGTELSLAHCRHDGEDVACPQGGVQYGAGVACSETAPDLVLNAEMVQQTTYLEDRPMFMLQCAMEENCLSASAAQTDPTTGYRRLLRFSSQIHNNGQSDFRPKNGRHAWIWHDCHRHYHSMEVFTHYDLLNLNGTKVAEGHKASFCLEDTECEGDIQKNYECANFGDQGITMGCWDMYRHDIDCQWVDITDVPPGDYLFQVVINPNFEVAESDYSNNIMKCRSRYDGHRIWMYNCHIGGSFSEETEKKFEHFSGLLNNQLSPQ

Compound | IC50 [nM]
NCc1ccnc(Oc2cccc3c2ccn3Cc2ccc(F)cn2)c1 [Compound 2-15, (2-((1-((5-Fluoropyridin-2-yl)methyl)-1H-indol-4-yl)oxy)pyridin-4-yl) methanamine hydrochloride] | < 300
NCc1ccnc(Oc2cccc(C(=O)Nc3ccc(F)cc3F)c2)c1 [Compound 1-24, 3-((4-Aminomethyl)pyridin-2-yl)oxy)-N-(2,4-difluorophenyl)benzamide hydrochloride] | < 300
Cc1nn(Cc2ccc(F)cc2F)c2cccc(Oc3cc(CN)ccn3)c12 [Compound 2-35, (2-((1-(2,4-Difluorobenzyl)-3-methyl-1H-indazol-4-yl)oxy)pyridin-4-yl)methanamine trifluoroacetate] | < 300
NCc1ccnc(N2CCCC2)c1 [Compound 4-10, 2-(1-Pyrrolidino)-4-(aminomethyl)pyridine] | > 1000
NCc1ccnc(C(=O)N2CCC(O)(C(F)(F)F)C2)c1 (racemic) [Compound 2-40, Racemic-(4-(aminomethyl)pyridin-2-yl)(3-hydroxy-3-(trifluoromethyl)pyrrolidin-1-yl)methanone hydrochloride] | < 300
CN(C)C(=O)Cn1ccc2c(Oc3cc(CN)ccn3)cccc21 [Compound 2-26, 2-(4-((4-(Aminomethyl)pyridin-2-yl)oxy)-1H-indol-1-yl)-N,N-dimethylacetamide hydrochloride] | < 300
NCc1ccnc(Oc2cccc(Oc3ccccc3)c2)c1 [Compound 2-8, (2-(3-Phenoxyphenoxy)pyridin-4-yl)methanamine] | < 300
COc1ccc(CN2C(=O)CCc3c(Oc4cc(CN)ccn4)cccc32)cn1 [Compound 2-37, 5-((4-(Aminomethyl)pyridin-2-yl)oxy)-1-((6-methoxypyridin-3-yl)methyl)-3,4-dihydroquinolin-2(1H)-one acetate] | < 300
NCc1ccnc(O[C@H]2CCCN(C(=O)c3ccccc3)C2)c1 [Compound 2-38, (S)-(3-((4-(Aminomethyl)pyridin-2-yl)oxy)piperidin-1-yl)(phenyl)methanone trifluoroacetate] | < 300
NCc1ccnc(Oc2cccc3c2ccn3CC(=O)N2CCCc3ccccc32)c1 [Compound 2-31, 2-(4-((4-(Aminomethyl)pyridin-2-yl)oxy)-1H-indol-1-yl)-1-(3,4-dihydroquinolin-1(2H)-yl)ethanone hydrochloride] | < 300
NCc1ccnc(Oc2cccc3c2ccn3C(=O)c2ccccc2)c1 [Compound 2-24, (4-((4-(Aminomethyl)pyridin-2-yl)oxy)-1H-indol-1-yl)(phenyl)methanone hydrochloride] | < 300
NCc1ccnc(-c2cccc(C(=O)O)c2)c1 [Compound 2-5, hydrochloride] | 300 to 1000
NCc1ccnc(-c2ccc(C(=O)Nc3ccccc3)cc2)c1 [Compound 1-3, 4-(4-(Aminomethyl)pyridin-2-yl)-N-phenylbenzamide hydrochloride] | < 300
COCCNC(=O)c1cccc(Oc2cc(CN)ccn2)c1 [Compound 1-15, 3-((4-(Aminomethyl)pyridin-2-yl)oxy)-N-(2-methoxyethyl)benzamide hydrochloride] | < 300
CN(C)c1cc(CN)cc(Oc2cccc(Oc3ccccc3)c2)n1 [Compound 3-1, 4-(Aminomethyl)-N,N-dimethyl-6-(3-phenoxyphenoxy)pyridin-2-amine hydrochloride] | > 1000
NCc1ccnc(Oc2cccc(C(=O)Nc3ccc(C(F)(F)F)cc3)c2)c1 [Compound 1-22, 3-((4-(Aminomethyl)pyridin-2-yl)oxy)-N-(4-(trifluoromethyl)phenyl)benzamide hydrochloride] | < 300
NCc1ccnc(-c2cccnc2)c1 [Compound 2-3, [2,3′-Bipyridin]-4-ylmethanamine] | < 300
NCc1cccnc1F [Compound 4-1, 2-Fluoro-3-(aminomethyl)pyridine] | > 1000
